Measured values: ChEMBL document CHEMBL4610014, “Discovery of novel 2,4-disubstituted pyrimidines as Aurora kinase inhibitors” (Bioorg Med Chem Lett, 2020)
pIC50: −log10 of the molar value. Blank lines part the entries; values can stand above or below the compound they belong to. Calls of active or inactive are those of the source. The calls are words filed in the database; no cut-off is given here.

Legend:
A549 = assay: Antiproliferative activity against human A549 cells assessed as reduction in cell viability after 72 hrs by MTT assay; type: functional, cell-based; details: A549, 72 h
MCF7 = assay: Antiproliferative activity against human MCF7 cells assessed as reduction in cell viability after 72 hrs by MTT assay; type: functional, cell-based; details: MCF7, 72 h
[1] = target: Fibroblast growth factor receptor 1 (Homo sapiens) (UniProt P11362); assay: Inhibition of FGFR1 (unknown origin) at 1 uM after 1 hr in presence of ATP by Kinase-Glo reagent-based luminescence assay relative to control
Sequence of Fibroblast growth factor receptor 1 (Homo sapiens) (P11362 22-822 limits assumed): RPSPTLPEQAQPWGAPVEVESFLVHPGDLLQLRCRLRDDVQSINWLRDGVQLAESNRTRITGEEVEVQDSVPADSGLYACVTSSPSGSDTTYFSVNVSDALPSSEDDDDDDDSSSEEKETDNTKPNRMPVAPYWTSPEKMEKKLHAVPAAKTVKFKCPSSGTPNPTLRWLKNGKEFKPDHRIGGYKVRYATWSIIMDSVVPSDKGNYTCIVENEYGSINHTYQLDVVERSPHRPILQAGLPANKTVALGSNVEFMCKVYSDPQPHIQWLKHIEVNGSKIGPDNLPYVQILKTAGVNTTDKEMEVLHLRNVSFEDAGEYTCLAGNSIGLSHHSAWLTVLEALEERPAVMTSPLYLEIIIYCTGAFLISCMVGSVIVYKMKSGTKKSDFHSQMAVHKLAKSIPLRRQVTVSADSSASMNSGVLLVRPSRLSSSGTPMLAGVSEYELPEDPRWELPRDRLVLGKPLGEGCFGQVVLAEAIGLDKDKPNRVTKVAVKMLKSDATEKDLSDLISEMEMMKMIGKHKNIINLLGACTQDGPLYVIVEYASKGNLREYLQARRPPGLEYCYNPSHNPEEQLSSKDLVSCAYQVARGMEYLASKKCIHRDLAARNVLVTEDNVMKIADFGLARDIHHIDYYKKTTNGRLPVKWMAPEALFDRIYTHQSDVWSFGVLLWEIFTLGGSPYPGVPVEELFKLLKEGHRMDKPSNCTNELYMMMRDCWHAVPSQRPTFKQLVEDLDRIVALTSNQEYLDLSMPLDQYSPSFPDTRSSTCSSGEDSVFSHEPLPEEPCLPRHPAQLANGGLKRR

[2] = target: Phosphatidylinositol 4,5-bisphosphate 3-kinase catalytic subunit alpha isoform (Homo sapiens) (UniProt P42336); assay: Inhibition of PI3Kalpha (unknown origin) at 1 uM after 1 hr in presence of ATP by Kinase-Glo reagent-based luminescence assay relative to control
Sequence of Phosphatidylinositol 4,5-bisphosphate 3-kinase catalytic subunit alpha isoform (Homo sapiens) (P42336 whole entry, canonical isoform): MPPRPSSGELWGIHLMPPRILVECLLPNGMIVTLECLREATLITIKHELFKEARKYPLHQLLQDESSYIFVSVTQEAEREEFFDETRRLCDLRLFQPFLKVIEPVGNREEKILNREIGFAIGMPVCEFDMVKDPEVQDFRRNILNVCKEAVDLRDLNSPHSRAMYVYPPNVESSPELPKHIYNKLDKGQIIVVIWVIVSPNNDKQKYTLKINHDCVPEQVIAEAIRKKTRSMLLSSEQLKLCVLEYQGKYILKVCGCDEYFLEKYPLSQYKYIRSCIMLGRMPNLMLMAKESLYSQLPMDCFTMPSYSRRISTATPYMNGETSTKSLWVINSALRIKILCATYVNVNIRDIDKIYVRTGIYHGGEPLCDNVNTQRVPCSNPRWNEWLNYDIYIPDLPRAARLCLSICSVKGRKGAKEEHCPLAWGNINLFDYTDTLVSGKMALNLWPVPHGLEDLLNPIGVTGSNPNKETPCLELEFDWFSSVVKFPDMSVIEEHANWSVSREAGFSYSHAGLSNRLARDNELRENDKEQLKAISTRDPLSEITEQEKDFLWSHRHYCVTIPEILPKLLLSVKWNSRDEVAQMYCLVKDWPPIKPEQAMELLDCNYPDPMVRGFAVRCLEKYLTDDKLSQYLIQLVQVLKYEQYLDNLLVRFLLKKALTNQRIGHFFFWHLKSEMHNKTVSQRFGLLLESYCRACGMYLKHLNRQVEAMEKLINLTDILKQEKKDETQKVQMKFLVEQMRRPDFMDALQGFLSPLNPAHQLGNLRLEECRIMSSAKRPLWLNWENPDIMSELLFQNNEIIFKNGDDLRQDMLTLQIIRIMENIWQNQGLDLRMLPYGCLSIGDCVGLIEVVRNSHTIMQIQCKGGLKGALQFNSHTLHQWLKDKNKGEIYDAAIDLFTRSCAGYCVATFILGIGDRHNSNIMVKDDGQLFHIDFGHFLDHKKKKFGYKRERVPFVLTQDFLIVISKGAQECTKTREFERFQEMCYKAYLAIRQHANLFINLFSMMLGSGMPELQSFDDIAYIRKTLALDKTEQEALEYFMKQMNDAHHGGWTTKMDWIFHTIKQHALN

Aurora kinase B [3] = target: T1, Aurora kinase B (Homo sapiens, UniProt Q96GD4); assay: Inhibition of Aurora B (unknown origin) after 1 hr in presence of ATP by Kinase-Glo reagent-based luminescence assay
T1 sequence (Q96GD4 whole entry): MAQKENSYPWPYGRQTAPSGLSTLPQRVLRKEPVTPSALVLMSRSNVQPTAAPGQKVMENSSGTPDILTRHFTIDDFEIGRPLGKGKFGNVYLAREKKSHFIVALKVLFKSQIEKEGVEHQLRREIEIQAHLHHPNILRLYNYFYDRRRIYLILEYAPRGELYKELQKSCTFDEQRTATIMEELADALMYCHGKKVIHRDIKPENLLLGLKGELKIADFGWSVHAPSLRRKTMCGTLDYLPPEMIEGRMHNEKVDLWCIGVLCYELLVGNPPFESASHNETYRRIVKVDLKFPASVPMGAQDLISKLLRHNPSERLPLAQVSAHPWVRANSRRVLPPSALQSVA

HCT-116 [4] = assay: Antiproliferative activity against human HCT116 cells assessed as reduction in cell viability after 72 hrs by MTT assay; type: functional, cell-based; details: HCT-116, 72 h
[5] = target: Vascular endothelial growth factor receptor 2 (Homo sapiens) (UniProt P35968); assay: Inhibition of VEGFR2 (unknown origin) at 1 uM after 1 hr in presence of ATP by Kinase-Glo reagent-based luminescence assay relative to control
Sequence of Vascular endothelial growth factor receptor 2 (Homo sapiens) (P35968 whole entry): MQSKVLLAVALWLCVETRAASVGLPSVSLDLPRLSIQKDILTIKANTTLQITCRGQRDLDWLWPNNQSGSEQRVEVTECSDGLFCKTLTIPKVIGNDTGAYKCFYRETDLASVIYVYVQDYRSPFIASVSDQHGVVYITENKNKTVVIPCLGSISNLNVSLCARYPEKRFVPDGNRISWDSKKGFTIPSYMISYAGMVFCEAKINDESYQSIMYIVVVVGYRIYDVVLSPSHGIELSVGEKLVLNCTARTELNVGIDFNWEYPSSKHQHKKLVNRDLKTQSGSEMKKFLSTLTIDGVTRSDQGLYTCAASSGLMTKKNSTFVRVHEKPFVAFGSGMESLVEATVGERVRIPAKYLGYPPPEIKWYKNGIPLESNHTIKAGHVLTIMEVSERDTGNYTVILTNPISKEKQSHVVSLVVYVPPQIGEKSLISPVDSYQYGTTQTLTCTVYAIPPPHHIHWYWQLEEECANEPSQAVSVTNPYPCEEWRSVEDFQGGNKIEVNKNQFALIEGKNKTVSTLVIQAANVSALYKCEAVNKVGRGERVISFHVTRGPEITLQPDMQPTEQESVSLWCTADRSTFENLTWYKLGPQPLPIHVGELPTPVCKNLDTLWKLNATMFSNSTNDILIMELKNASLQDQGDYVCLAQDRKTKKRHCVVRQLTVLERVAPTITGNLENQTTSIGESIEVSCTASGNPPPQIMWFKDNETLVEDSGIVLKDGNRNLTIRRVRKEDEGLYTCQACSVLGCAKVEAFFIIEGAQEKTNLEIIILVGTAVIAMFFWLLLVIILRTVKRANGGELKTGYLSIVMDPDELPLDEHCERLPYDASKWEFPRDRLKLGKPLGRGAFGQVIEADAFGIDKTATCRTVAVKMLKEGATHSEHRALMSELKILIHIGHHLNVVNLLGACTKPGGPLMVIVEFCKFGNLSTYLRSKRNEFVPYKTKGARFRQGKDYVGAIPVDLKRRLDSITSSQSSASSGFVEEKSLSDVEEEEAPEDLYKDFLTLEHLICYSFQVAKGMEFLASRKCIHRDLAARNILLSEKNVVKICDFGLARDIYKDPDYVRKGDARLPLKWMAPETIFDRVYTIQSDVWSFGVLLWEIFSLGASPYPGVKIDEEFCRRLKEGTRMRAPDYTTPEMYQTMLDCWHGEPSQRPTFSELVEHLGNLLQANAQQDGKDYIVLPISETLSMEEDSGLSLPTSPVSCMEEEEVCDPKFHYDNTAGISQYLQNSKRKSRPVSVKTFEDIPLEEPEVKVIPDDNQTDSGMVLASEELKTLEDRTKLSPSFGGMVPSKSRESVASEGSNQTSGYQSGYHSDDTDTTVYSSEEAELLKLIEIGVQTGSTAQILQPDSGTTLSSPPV

Aurora kinase A = target: T2, Aurora kinase A (Homo sapiens, UniProt O14965); assay: Inhibition of Aurora A (unknown origin) after 1 hr in presence of ATP by Kinase-Glo reagent-based luminescence assay
T2 sequence (O14965 whole entry): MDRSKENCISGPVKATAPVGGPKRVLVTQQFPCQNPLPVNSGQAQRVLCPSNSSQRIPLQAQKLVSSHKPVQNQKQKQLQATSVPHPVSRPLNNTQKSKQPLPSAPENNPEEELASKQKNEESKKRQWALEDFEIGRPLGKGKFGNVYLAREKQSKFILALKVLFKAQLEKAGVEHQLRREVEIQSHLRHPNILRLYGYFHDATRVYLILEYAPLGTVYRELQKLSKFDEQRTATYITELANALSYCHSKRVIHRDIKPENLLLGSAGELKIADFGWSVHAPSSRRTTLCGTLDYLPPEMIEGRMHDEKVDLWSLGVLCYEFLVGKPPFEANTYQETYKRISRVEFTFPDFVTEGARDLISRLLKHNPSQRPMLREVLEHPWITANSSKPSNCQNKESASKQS

HCT-116 [6] = assay: Induction of apoptosis in human HCT116 cells assessed as early apoptotic cells at 0.1 uM after 48 hrs by Annexin-V/PI-staining based flow cytometry (reference value: 0.54%); type: functional
HCT-116 [7] = assay: Induction of apoptosis in human HCT116 cells assessed as necrotic cells at 1 uM after 48 hrs by Annexin-V/PI-staining based flow cytometry (reference value: […]); type: functional
HCT-116 [8] = assay: Induction of apoptosis in human HCT116 cells assessed as necrotic cells at 0.1 uM after 48 hrs by Annexin-V/PI-staining based flow cytometry (reference value: […]); type: functional
HCT-116 [9] = assay: Induction of apoptosis in human HCT116 cells assessed as viable cells at 1 uM after 48 hrs by Annexin-V/PI-staining based flow cytometry (reference value: 89.72%); type: functional; details: HCT-116, 48 h, read-out: Activity
HCT-116 [10] = assay: Induction of apoptosis in human HCT116 cells assessed as late apoptotic cells at 1 uM after 48 hrs by Annexin-V/PI-staining based flow cytometry (reference value: 3.34%); type: functional
HCT-116 [11] = assay: Induction of apoptosis in human HCT116 cells assessed as decrease in bcl-xl protein expression at 0.5 to 5 uM after 12 hrs by Western blot analysis; type: functional, cell-based
HCT-116 [12] = assay: Induction of apoptosis in human HCT116 cells assessed as viable cells at 0.5 uM after 48 hrs by Annexin-V/PI-staining based flow cytometry (reference value: 89.72%); type: functional; details: HCT-116, 48 h, read-out: Activity
HCT-116 [13] = assay: Induction of apoptosis in human HCT116 cells assessed as late apoptotic cells at 0.5 uM after 48 hrs by Annexin-V/PI-staining based flow cytometry (reference value: 3.34%); type: functional
HCT-116 [14] = assay: Induction of apoptosis in human HCT116 cells assessed as early apoptotic cells at 0.5 uM after 48 hrs by Annexin-V/PI-staining based flow cytometry (reference value: 0.54%); type: functional
HCT-116 [15] = assay: Induction of apoptosis in human HCT116 cells assessed as increase in bax protein expression at 0.5 to 5 uM after 12 hrs by Western blot analysis; type: functional, cell-based
Aurora kinase B [16] = target: T1, Aurora kinase B; assay: Inhibition of Aurora B in human HCT116 cells assessed as reduction in phosphorylation at Thr232 residue at 0.5 to 5 uM after 12 hrs by Western blot analysis; type: cell-based; details: HCT-116
HCT-116 [17] = assay: Induction of apoptosis in human HCT116 cells assessed as necrotic cells at 0.5 uM after 48 hrs by Annexin-V/PI-staining based flow cytometry (reference value: […]); type: functional
HCT-116 [18] = assay: Induction of apoptosis in human HCT116 cells assessed as late apoptotic cells at 0.1 uM after 48 hrs by Annexin-V/PI-staining based flow cytometry (reference value: 3.34%); type: functional
HCT-116 [19] = assay: Induction of apoptosis in human HCT116 cells assessed as necrotic cells after 48 hrs by Annexin-V/PI-staining based flow cytometry; type: functional, cell-based
[20] = target: T3, Aurora kinase A (Homo sapiens) (UniProt O14965); assay: Inhibition of Aurora A in human HCT116 cells assessed as reduction in phosphorylation at Thr288 residue at 0.5 to 5 uM after 12 hrs by Western blot analysis; type: cell-based; details: HCT-116
T3 sequence (whole entry): T2 sequence (O14965 whole entry)

HCT-116 [21] = assay: Induction of apoptosis in human HCT116 cells assessed as viable cells at 0.1 uM after 48 hrs by Annexin-V/PI-staining based flow cytometry (reference value: 89.72%); type: functional; details: HCT-116, 48 h, read-out: Activity
HCT-116 [22] = assay: Induction of apoptosis in human HCT116 cells assessed as early apoptotic cells at 1 uM after 48 hrs by Annexin-V/PI-staining based flow cytometry (reference value: 0.54%); type: functional
Aurora kinase C = target: T4, Aurora kinase C (Homo sapiens, UniProt Q9UQB9)
T4 sequence (Q9UQB9 whole entry): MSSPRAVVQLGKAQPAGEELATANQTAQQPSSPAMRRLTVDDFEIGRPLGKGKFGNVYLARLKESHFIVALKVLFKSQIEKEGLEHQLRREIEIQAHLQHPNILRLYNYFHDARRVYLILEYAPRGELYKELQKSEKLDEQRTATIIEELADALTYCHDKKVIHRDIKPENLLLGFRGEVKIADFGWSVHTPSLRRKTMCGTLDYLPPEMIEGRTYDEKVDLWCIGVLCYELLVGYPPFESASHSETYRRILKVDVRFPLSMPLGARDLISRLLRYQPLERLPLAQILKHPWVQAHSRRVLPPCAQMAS
Description: Inhibition of recombinant full-length His-tagged human Aurora C expressed in baculovirus expression system

Compound: O=C(Nc1ccc(Nc2nccc(NC3CCCC3)n2)cc1)NC1CCCCC1
pIC50 (A549): 5.27 | pIC50 (MCF7): 4.72 | inhibition [1]: < 1% | inhibition [2]: 16.8% | pIC50 (Aurora kinase B [3]): 6.48 | pIC50 (HCT-116 [4]): 5.96 | inhibition [5]: 4.5%

Compound: O=C(Cc1ccc(Nc2nccc(NC3CCCC3)n2)cc1)NC1CCCCC1
pIC50 (Aurora kinase A): 6.51 | pIC50 (A549): 4.92 | Activity (HCT-116 [6]): 1.9% | Activity (HCT-116 [7]): 46.07% | pIC50 (MCF7): 4.69 | Activity (HCT-116 [8]): 4.39% | viability at 1 µM (HCT-116 [9]): 7.46% | Activity (HCT-116 [10]): 45.64% | Activity (HCT-116 [11]): Active | viability at 0.5 µM (HCT-116 [12]): 58% | Activity (HCT-116 [13]): 22.54% | inhibition [1]: < 1% | inhibition [2]: 2.4% | pIC50 (Aurora kinase B [3]): 6.53 | Activity (HCT-116 [14]): 3.99% | Activity (HCT-116 [15]): Active | inhibition (Aurora kinase B [16]): Active | Activity (HCT-116 [17]): 15.45% | pIC50 (HCT-116 [4]): 5.88 | Activity (HCT-116 [18]): 5.89% | inhibition [5]: < 1% | Activity (HCT-116 [19]): Dose-dependent effect | inhibition [20]: Active | viability at 0.1 µM (HCT-116 [21]): 87.8% | Activity (HCT-116 [22]): 0.84%

Compound: O=C(Nc1ccc(Cl)cc1)Nc1ccc(Nc2nccc(NC3CCCC3)n2)cc1
pIC50 (A549): 4.93 | pIC50 (MCF7): 4.66 | pIC50 (HCT-116 [4]): 5.27

Compound: O=C(Nc1ccc(Nc2nccc(Nc3ccccc3)n2)cc1)Nc1ccc(Cl)c(C(F)(F)F)c1
pIC50 (A549): < 4.30 | pIC50 (MCF7): < 4.30 | pIC50 (HCT-116 [4]): < 4.30

Compound: c1nc2nc(Nc3ccc(N4CCOCC4)cc3)nc(NC3CCCCC3)c2[nH]1 [REVERSINE]
pIC50 (Aurora kinase C): 6.40

Compound: CCCNc1ccnc(Nc2ccc(NC(=O)Nc3ccc(Cl)c(C(F)(F)F)c3)cc2)n1
pIC50 (A549): 5.14 | pIC50 (MCF7): 5.34 | pIC50 (HCT-116 [4]): 5.37

Compound: O=C(Nc1ccc(Nc2nccc(NC3CCCC3)n2)cc1)Nc1cccc(C(F)(F)F)c1
pIC50 (A549): 5.31 | pIC50 (MCF7): 5.29 | pIC50 (HCT-116 [4]): 5.62

Compound: O=C(Nc1ccc(Nc2nccc(NC3CCCC3)n2)cc1)Nc1ccc(Cl)c(C(F)(F)F)c1
pIC50 (A549): 5.23 | pIC50 (MCF7): 5.63 | pIC50 (HCT-116 [4]): 5.60

Continued, values first:

pIC50 (A549): 5.41 | pIC50 (MCF7): 4.76 | pIC50 (HCT-116 [4]): 5.83
Compound: Cc1cc(Nc2cc(N3CCN(C)CC3)nc(Sc3ccc(NC(=O)C4CC4)cc3)n2)n[nH]1 [TOZASERTIB]

pIC50 (A549): 5.06 | pIC50 (MCF7): 5.01 | pIC50 (HCT-116 [4]): 5.31
Compound: Cn1cc(Nc2ccnc(Nc3ccc(NC(=O)Nc4ccc(Cl)c(C(F)(F)F)c4)cc3)n2)cn1

pIC50 (A549): 5.09 | pIC50 (MCF7): 4.98 | pIC50 (HCT-116 [4]): 5.32
Compound: O=C(Nc1ccc(Nc2nccc(Nc3cccc(Cl)c3)n2)cc1)Nc1ccc(Cl)c(C(F)(F)F)c1

pIC50 (A549): 4.73 | pIC50 (MCF7): 4.55 | pIC50 (HCT-116 [4]): 5.09
Compound: O=C(Nc1ccc(Nc2nccc(Nc3ccccc3Cl)n2)cc1)Nc1ccc(Cl)c(C(F)(F)F)c1

pIC50 (A549): 5.08 | pIC50 (MCF7): 5.24 | pIC50 (HCT-116 [4]): 5.26
Compound: O=C(Cc1cccc(C(F)(F)F)c1)Nc1ccc(Nc2nccc(NC3CCCC3)n2)cc1

pIC50 (A549): 5.20 | pIC50 (MCF7): 4.89 | pIC50 (HCT-116 [4]): 5.33
Compound: O=C(Nc1ccc(Nc2nccc(Nc3ccc(Cl)cc3)n2)cc1)Nc1ccc(Cl)c(C(F)(F)F)c1

pIC50 (A549): 5.47 | pIC50 (MCF7): 4.78 | pIC50 (HCT-116 [4]): 5.60
Compound: O=C(Cc1ccc(Nc2nccc(NC3CCCC3)n2)cc1)Nc1cccc(C(F)(F)F)c1

pIC50 (A549): 4.73 | pIC50 (MCF7): 4.42 | pIC50 (HCT-116 [4]): 4.78
Compound: O=C(Nc1ccc(Nc2nccc(NC3CC3)n2)cc1)Nc1ccc(Cl)c(C(F)(F)F)c1

pIC50 (A549): 5.13 | pIC50 (MCF7): 4.97 | pIC50 (HCT-116 [4]): 5.23
Compound: O=C(Nc1ccc(Nc2nccc(NC3CCCCC3)n2)cc1)Nc1ccc(Cl)c(C(F)(F)F)c1

pIC50 (A549): 5.40 | pIC50 (MCF7): 4.75 | pIC50 (HCT-116 [4]): 5.61
Compound: O=C(CC1CCCCC1)Nc1ccc(Nc2nccc(NC3CCCC3)n2)cc1
